{"source": "patent US20240065995A1", "about": "“INJECTABLE METHODS TO TREAT DEFICIENCIES IN GLUTATHIONE METABOLISM AND HOMOCYSTINURIA” (priority 2022, published 2024)", "origin": "cited, not measured here", "settings": "glutathione in the bloodstream; background statement"}
{"smiles": "N[C@@H](CCC(=O)N[C@@H](CS)C(=O)NCC(=O)O)C(=O)O", "note": "[Glutathione]", "values": [{"measurement": "half-life in the bloodstream", "result": "under 2 minutes"}]}
